From patent US20250145665A1, “MACROCYCLIC PEPTIDES USEFUL AS MODULATORS OF TNF ALPHA” (Bristol-Myers Squibb Company, priority 2023, published 2025)
Starred links: 1 amine or outer side, 2 acyl side, 3 side chain; linkers in the order of their positions; H or OH if unused. Positions of bridges follow the written chain, without caps; N, C: chain ends. Non-standard residues stand in square brackets, D forms with d. Residues, ends and D or L forms follow the SMILES beside them. *: point of attachment. X43 = O=C(O)[C@@H]1CCC[C@H](C(=O)Nc2ccc(-c3ccc(C[C@H](N[*:1])C(=O)[*:2])cc3)cc2)C1; X52 = Cc1c(C(=O)O)cccc1C(=O)Nc1ccc(-c2ccc(C[C@H](N[*:1])C(=O)[*:2])cc2)cc1; X77 = Cc1ccc(C(=O)O)cc1C(=O)Nc1ccc(-c2ccc(C[C@H](N[*:1])C(=O)[*:2])cc2)cc1; X5 = Cn1nc(C(=O)Nc2ccc(-c3ccc(C[C@H](N[*:1])C(=O)[*:2])cc3)cc2)c2ccccc21; Bip(4'-NH) = O=C([C@H](Cc1ccc(-c2ccc(N[*:3])cc2)cc1)N[*:1])[*:2]; dArg(ω-Bn(3-CH2OH)) = N=C(NCCC[C@@H](N)C(=O)O)NCc1cccc(CO)c1; Indazole3carbonyl(1-CH2COOH) = O=C(O)Cn1nc(C(=O)*)c2ccccc21; Bip(4'-COOH) = N[C@@H](Cc1ccc(-c2ccc(C(=O)O)cc2)cc1)C(=O)O; Bip(4'-NHAc) = CC(=O)Nc1ccc(-c2ccc(C[C@H](N)C(=O)O)cc2)cc1; X7 = N=C(NCCC[C@@H](N[*:1])C(=O)[*:2])NCc1ccc2occc2c1; Ala(imidazol-2-yl) = N[C@@H](Cc1ncc[nH]1)C(=O)O; Ala(morpholin-4-yl) = N[C@@H](CN1CCOCC1)C(=O)O; Phe(3-CONH2) = NC(=O)c1cccc(C[C@H](N)C(=O)O)c1; Bip = N[C@@H](Cc1ccc(-c2ccccc2)cc1)C(=O)O; Ala(2-furyl) = N[C@@H](Cc1ccco1)C(=O)O; 2Pal = N[C@@H](Cc1ccccn1)C(=O)O; 2Thi = N[C@@H](Cc1cccs1)C(=O)O; Cha = N[C@@H](CC1CCCCC1)C(=O)O; Chg = N[C@H](C(=O)O)C1CCCCC1; Sar = CNCC(=O)O

These compounds were tested against TNFα (Homo sapiens, UniProt P01375) (assay: TNF-Induced HEK-Blue Assay). Conditions: not given.
Chain of TNFα (P01375 77-233 limits assumed): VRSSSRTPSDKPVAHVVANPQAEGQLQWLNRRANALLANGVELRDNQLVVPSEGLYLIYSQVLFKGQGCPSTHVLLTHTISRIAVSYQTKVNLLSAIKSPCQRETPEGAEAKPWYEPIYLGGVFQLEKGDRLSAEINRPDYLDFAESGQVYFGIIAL
Format: cell-based

Structure (SMILES)	IC50
CC(C)C[C@@H]1NC(=O)[C@H](CCCNC(=N)N)NC(=O)[C@H](C(C)C)NC(=O)[C@@H]2CCCN2C(=O)[C@H](C(C)C)NC(=O)[C@@H](CCCNC(=N)NCc2ccc3occc3c2)NC(=O)[C@H](CC(=O)O)NC(=O)[C@@H]2CCCN2C(=O)CN(C)C(=O)[C@H](Cc2ccc(-c3ccc(NC(=O)c4nn(CC(=O)O)c5ccccc45)cc3)cc2)NC(=O)[C@H](Cc2ccc(-c3ccccc3)cc2)NC(=O)[C@H](CN2CCOCC2)NC(=O)CSC[C@@H](C(=O)NCC(N)=O)NC1=O [Example 449] ({CH2CO}-[Ala(morpholin-4-yl)][Bip][Bip(4'-NH)](Indazole3carbonyl(1-CH2COOH))[Sar]PD[X7]VPVRLCG-NH2; thioether N-13)	< 50 nM

Same assay, conditions: HEK-Blue-CD40L cells, NF-kB-driven secreted alkaline phosphatase reporter; TNFα 0.5 ng/ml; 18 h; read-out: TNF induced HEK-Blue assay IC50 value

Structure (SMILES)	IC50
CC[C@H](C)[C@@H]1NC(=O)[C@@H](CCCNC(=N)N)NC(=O)[C@H](CC(=O)O)NC(=O)[C@H](Cc2cnc[nH]2)NC(=O)CN(C)C(=O)[C@H](Cc2ccc(-c3ccc(NC(=O)[C@H]4CCC[C@@H](C(=O)O)C4)cc3)cc2)NC(=O)[C@H](Cc2ccc(-c3ccccc3)cc2)NC(=O)[C@H](CC2CCCCC2)NC(=O)CSC[C@@H](C(=O)NCC(N)=O)NC(=O)[C@H](CC(C)C)NC(=O)[C@H](Cc2cnc[nH]2)NC(=O)[C@H](C(C)C)NC(=O)[C@@H]2CCCN2C1=O [Example 446] ({CH2CO}-[Cha][Bip][X43][Sar]HD[dR]IPVHLCG-NH2; thioether N-13)	50 to 200 nM
CC[C@H](C)[C@@H]1NC(=O)[C@@H](CCCNC(=N)N)NC(=O)[C@H](CC(=O)O)NC(=O)[C@H](Cc2cnc[nH]2)NC(=O)CN(C)C(=O)[C@H](Cc2ccc(-c3ccc(NC(=O)c4cccc(C(=O)O)c4C)cc3)cc2)NC(=O)[C@H](Cc2ccc(-c3ccccc3)cc2)NC(=O)[C@H](CC2CCCCC2)NC(=O)CSC[C@@H](C(=O)NCC(N)=O)NC(=O)[C@H](CC(C)C)NC(=O)[C@H](Cc2cnc[nH]2)NC(=O)[C@H](C(C)C)NC(=O)[C@@H]2CCCN2C1=O [Example 447] ({CH2CO}-[Cha][Bip][X52][Sar]HD[dR]IPVHLCG-NH2; thioether N-13)	50 to 200 nM
CC(C)C[C@@H]1NC(=O)[C@H](CCCNC(=N)N)NC(=O)[C@H](C(C)C)NC(=O)[C@@H]2CCCN2C(=O)[C@H](C(C)C)NC(=O)[C@@H](CCCNC(=N)NCc2cccc(CO)c2)NC(=O)[C@H](CC(=O)O)NC(=O)[C@@H]2CCCN2C(=O)CN(C)C(=O)[C@H](Cc2ccc(-c3ccc(NC(=O)c4nn(C)c5ccccc45)cc3)cc2)NC(=O)[C@H](Cc2ccc(-c3ccccc3)cc2)NC(=O)[C@H](CN2CCOCC2)NC(=O)CSC[C@@H](C(=O)NCC(N)=O)NC1=O [Example 448] ({CH2CO}-[Ala(morpholin-4-yl)][Bip][X5][Sar]PD[dArg(ω-Bn(3-CH2OH))]VPVRLCG-NH2; thioether N-13)	< 50 nM
CC[C@H](C)[C@@H]1NC(=O)[C@@H](CCCNC(=N)N)NC(=O)[C@H](CC(=O)O)NC(=O)[C@H](Cc2cnc[nH]2)NC(=O)CN(C)C(=O)[C@H](Cc2ccc(-c3ccc(NC(=O)c4cc(C(=O)O)ccc4C)cc3)cc2)NC(=O)[C@H](Cc2ccc(-c3ccccc3)cc2)NC(=O)[C@H](CC2CCCCC2)NC(=O)CSC[C@@H](C(=O)NCC(N)=O)NC(=O)[C@H](CC(C)C)NC(=O)[C@H](Cc2cnc[nH]2)NC(=O)[C@H](C(C)C)NC(=O)[C@@H]2CCCN2C1=O [Example 450] ({CH2CO}-[Cha][Bip][X77][Sar]HD[dR]IPVHLCG-NH2; thioether N-13)	< 50 nM

Continued, values first:

IC50	Structure (SMILES)
< 50 nM	CC(=O)Nc1ccc(-c2ccc(C[C@@H]3NC(=O)[C@H](Cc4ccc(-c5ccccc5)cc4)NC(=O)[C@H](CC4CCCCC4)NC(=O)CSC[C@@H](C(=O)NCC(N)=O)NC(=O)[C@H](CC(C)C)NC(=O)[C@H](Cc4ncc[nH]4)NC(=O)[C@H](C(C)C)NC(=O)[C@@H]4CCCN4C(=O)[C@H](C(C)C)NC(=O)[C@@H](CCCNC(=N)N)NC(=O)[C@H](CC(=O)O)NC(=O)[C@H](Cc4ccco4)NC(=O)CN(C)C3=O)cc2)cc1 [Example 451] ({CH2CO}-[Cha][Bip][Bip(4'-NHAc)][Sar][Ala(2-furyl)]D[dR]VPV[Ala(imidazol-2-yl)]LCG-NH2; thioether N-13)
50 to 200 nM	CC(=O)Nc1ccc(-c2ccc(C[C@@H]3NC(=O)[C@H](Cc4ccc(-c5ccccc5)cc4)NC(=O)[C@H](CN4CCOCC4)NC(=O)CSC[C@@H](C(=O)NCC(N)=O)NC(=O)[C@H](CC(C)C)NC(=O)[C@H](Cc4cccs4)NC(=O)[C@H](C4CCCCC4)NC(=O)[C@@H]4CCCN4C(=O)[C@H](C(C)C)NC(=O)[C@@H](CCCNC(=N)N)NC(=O)[C@H](CC(=O)O)NC(=O)[C@H](Cc4ccccn4)NC(=O)CN(C)C3=O)cc2)cc1 [Example 452] ({CH2CO}-[Ala(morpholin-4-yl)][Bip][Bip(4'-NHAc)][Sar][2Pal]D[dR]VP[Chg][2Thi]LCG-NH2; thioether N-13)
< 50 nM	CC(=O)Nc1ccc(-c2ccc(C[C@@H]3NC(=O)[C@H](Cc4ccc(-c5ccc(C(=O)O)cc5)cc4)NC(=O)[C@H](CN4CCOCC4)NC(=O)CSC[C@@H](C(=O)NCC(N)=O)NC(=O)[C@H](CC(C)C)NC(=O)[C@H](Cc4cccs4)NC(=O)[C@H](C(C)C)NC(=O)[C@@H]4CCCN4C(=O)[C@H](C(C)C)NC(=O)[C@@H](CCCNC(=N)N)NC(=O)[C@H](CC(=O)O)NC(=O)[C@H](Cc4cnc[nH]4)NC(=O)CN(C)C3=O)cc2)cc1 [Example 453] ({CH2CO}-[Ala(morpholin-4-yl)][Bip(4'-COOH)][Bip(4'-NHAc)][Sar]HD[dR]VPV[2Thi]LCG-NH2; thioether N-13)
< 50 nM	CC(=O)Nc1ccc(-c2ccc(C[C@@H]3NC(=O)[C@H](Cc4ccc(-c5ccccc5)cc4)NC(=O)[C@H](CN4CCOCC4)NC(=O)CSC[C@@H](C(=O)NCC(N)=O)NC(=O)[C@H](CC(C)C)NC(=O)[C@H](Cc4ccccc4)NC(=O)[C@H](C4CCCCC4)NC(=O)[C@@H]4CCCN4C(=O)[C@H](C(C)C)NC(=O)[C@@H](CCCNC(=N)N)NC(=O)[C@H](CC(=O)O)NC(=O)[C@H](Cc4ccccn4)NC(=O)CN(C)C3=O)cc2)cc1 [Example 454] ({CH2CO}-[Ala(morpholin-4-yl)][Bip][Bip(4'-NHAc)][Sar][2Pal]D[dR]VP[Chg]FLCG-NH2; thioether N-13)
50 to 200 nM	CC(=O)Nc1ccc(-c2ccc(C[C@@H]3NC(=O)[C@H](Cc4ccc(-c5ccccc5)cc4)NC(=O)[C@H](CN4CCOCC4)NC(=O)CSC[C@@H](C(=O)NCC(N)=O)NC(=O)[C@H](CC(C)C)NC(=O)[C@H](Cc4cccc(C(N)=O)c4)NC(=O)[C@H](C(C)C)NC(=O)[C@@H]4CCCN4C(=O)[C@H](C(C)C)NC(=O)[C@@H](CCCNC(=N)N)NC(=O)[C@H](CC(=O)O)NC(=O)[C@H](Cc4ccccc4)NC(=O)CN(C)C3=O)cc2)cc1 [Example 455] ({CH2CO}-[Ala(morpholin-4-yl)][Bip][Bip(4'-NHAc)][Sar]FD[dR]VPV[Phe(3-CONH2)]LCG-NH2; thioether N-13)
50 to 200 nM	CC(=O)Nc1ccc(-c2ccc(C[C@@H]3NC(=O)[C@H](Cc4ccc(-c5ccccc5)cc4)NC(=O)[C@H](CN4CCOCC4)NC(=O)CSC[C@@H](C(=O)NCC(N)=O)NC(=O)[C@H](CC(C)C)NC(=O)[C@H](Cc4cccc(C(N)=O)c4)NC(=O)[C@H](C(C)C)NC(=O)[C@@H]4CCCN4C(=O)[C@H](C(C)C)NC(=O)[C@@H](CCCNC(=N)N)NC(=O)[C@H](CC(=O)O)NC(=O)[C@H](Cc4ccc(O)cc4)NC(=O)CN(C)C3=O)cc2)cc1 [Example 456] ({CH2CO}-[Ala(morpholin-4-yl)][Bip][Bip(4'-NHAc)][Sar]YD[dR]VPV[Phe(3-CONH2)]LCG-NH2; thioether N-13)
